According to patent publication US12343350B2, “Istaroxime-containing intravenous formulation for the treatment of acute heart failure (AHF)” (Windtree Therapeutics, Inc., priority 2019, dated 2025):
Marks after values point to notes of the source that are not given here.

Tested on: STZ diabetic rats
Test: Haemodynamics in streptozotocin (STZ) diabetic rats (echocardiography 2M-Doppler-Tissue Doppler)
Format: in vivo, rat
Description: Sprague Dawley male rats (150-175 g) were made diabetic by a single injection into the tail vein of a solution of streptozotocin (STZ, 50 mg/kg, Sigma-Aldrich), freshly prepared in 0.1 M sodium citrate buffer, pH 4.5. Control rats received citrate buffer. Fasting glycaemia was measured after 1 week and rats with values greater than 400 mg/dl were considered diabetic.
Eight to nine weeks after STZ injection, rats were submitted to transthoracic echocardiographic and Doppler evaluation performed under pentobarbital anesthesia. Two-dimensionally guided M-mode recordings were used to obtain short-axis measurements of left ventricular end-diastolic diameter (LVEDD), left ventricular end-systolic diameter (LVESD), posterior (PW) and septal (SW) diastolic wall thickness according to the American Society of Echocardiography guidelines (Lang R M et al., Eur J Echocardiography 2006; 7:79-108). Fractional shortening was calculated as FS=(LVEDD-LVESD)/LVEDD. Relative wall thickness was calculated as PWTd+IVSTd/LVEDD.
Mitral inflow was measured by pulsed Doppler at the tips of mitral leaflets from an apical 4-chamber view to obtain early and late filling velocities (E, A) and deceleration time of early filling velocity (DT). The deceleration slope was calculated as E/DT ratio. The mitral deceleration index was calculated as DT/E ratio.
Tissue Doppler Imaging (TDI) was evaluated from the apical 4-chamber view to record septal mitral annular movements, i.e., peak myocardial systolic (s′) and early and late diastolic velocity (e′ and a′).
The compound PST 3093 was iv administered to STZ injected rats at the dose of 0.22 mg/kg and echocardiographic parameters were measured after 15 and 30 min from the beginning of iv infusion and 10 min after interruption of infusion.

[1] = after 10 min from STOP infusion

C[C@]12CCC(=NOCC(=O)O)CC1[C@H](O)CC1C2CC[C@]2(C)C(=O)CCC12 (stereo partly drawn) [PST 3093, (E,Z)-[(6-beta-hydroxy-17-oxoandrostan-3-ylidene)amino]oxyacetic acid]
CO, cardiac output (0.22 mg/kg iv, after 15 min): 231.7 ± 64 mL/min
DT, deceleration time of E wave (0.22 mg/kg iv, after 15 min): 40.2 ± 9.54 ms
DT/E, mitral deceleration index (0.22 mg/kg iv, after 15 min): 40.39 ± 15.04* s^2/m
E, E wave, early filling velocity of mitral inflow (0.22 mg/kg iv, after 15 min): 1.048 ± 0.218
E/DT, decelaration slope (0.22 mg/kg iv, after 15 min): 27.51 ± 8.42 m/s^2
E/e′, index of LV filling pressure (0.22 mg/kg iv, after 15 min): 38.61 ± 4.71
HR, heart rate (0.22 mg/kg iv, after 15 min): 271 ± 33 beat/min
SV, stroke volume (0.22 mg/kg iv, after 15 min): 0.85 ± 0.18 ml/beat
e′ TDI, early relaxation velocity (0.22 mg/kg iv, after 15 min): 27.01 ± 3.4 cm/s
CO, cardiac output (0.22 mg/kg iv, after 30 min): 230.6 ± 46.7 mL/min
DT, deceleration time of E wave (0.22 mg/kg iv, after 30 min): 36.6 ± 6.09 ms
DT/E, mitral deceleration index (0.22 mg/kg iv, after 30 min): 35.47 ± 10.19* s^2/m
E, E wave, early filling velocity of mitral inflow (0.22 mg/kg iv, after 30 min): 1.076 ± 0.211
E/DT, decelaration slope (0.22 mg/kg iv, after 30 min): 30.36 ± 8.73 m/s^2
E/e′, index of LV filling pressure (0.22 mg/kg iv, after 30 min): 38.7 ± 4.26
HR, heart rate (0.22 mg/kg iv, after 30 min): 269 ± 29 beat/min
SV, stroke volume (0.22 mg/kg iv, after 30 min): 0.86 ± 0.14 ml/beat
e′ TDI, early relaxation velocity (0.22 mg/kg iv, after 30 min): 27.77 ± 4.27 cm/s
CO, cardiac output [1]: 200.88 ± 51.7 mL/min
DT, deceleration time of E wave [1]: 41.88 ± 7.86 ms
DT/E, mitral deceleration index [1]: 49.08 ± 13.09* s^2/m
E, E wave, early filling velocity of mitral inflow [1]: 0.89 ± 0.19
E/DT, decelaration slope [1]: 22.36 ± 8.89 m/s^2
E/e′, index of LV filling pressure [1]: 39.45 ± 4.18
HR, heart rate [1]: 249 ± 28 beat/min
SV, stroke volume [1]: 0.81 ± 0.17 ml/beat
e′ TDI, early relaxation velocity [1]: 22.48 ± 3.35 cm/s
